Results published in US10899852B2, “Benzil monoketals and the use thereof” (Merck Patent GmbH, priority 2015, dated 2021).

Assay: storage test of polymerisable liquid-crystal mixture P-1 with sealant containing photoinitiator, then UV irradiation in PS-VA test cells; RM-1 concentration by HPLC
Settings: inferred from RM-1 polymerisation after storage 7 d at 80° C.
Procedure: A polymerisable liquid-crystal mixture P-1 consisting of • 1. 99.7% by weight of the nematic liquid-crystal mixture M-1 and • 2. 0.3% by weight of the polymerisable compound RM-1
[drawing 37] is prepared. Three samples of in each case 0.5 g of mixture P-1 are stored together with in each case 1 g of the commercially available sealant Unocol 2094® (APM Technica GmbH, Pürgen-Ummendorf), the latter in each case containing • 1. no photoinitiator • 2. 3.0% by weight of the photoinitiator according to the invention from Example 1 • 3. 3.0% by weight of the commercially available photoinitiator Irgacure651® of the structure shown below in a tightly sealed vial at 80° C. for 7 d with exclusion of air and light. A fourth sample of mixture P-1 is stored under the same conditions without the presence of sealant (blank experiment).
The mixtures are subsequently separated off from the sealant, in each case divided into two parts, introduced into PS-VA test cells and irradiated with a metal halide UV lamp with an intensity of 100 mW/cm^2 at 40° C. for a duration of 60 s or 180 s.
The PS-VA test cells consist of two plane-parallel glass plates having a cell gap of 4 μm, each of which are coated with an ITO electrode and with a polyimide alignment layer on top.
After the irradiation, the concentration of the polymerisable compound RM-1 is determined by HPLC.

SMILES	photoinitiator dissolved out of the sealant into the liquid crystal during the storage test
COC(OC)(C(=O)c1ccc(OCC(O)CO)cc1)c1ccc(OCC(O)CO)cc1 (centres unmarked) [Example 1, 1,2-Bis[4-(2,3-dihydroxypropoxy)phenyl]-2,2-dimethoxyethanone]	no photoinitiator according to the invention has been dissolved out of the sealant
COC(OC)(C(=O)c1ccccc1)c1ccccc1 [Irgacure651®]	considerable amounts of photoinitiator have dissolved in the liquid-crystal mixture
